Measured values taken from patent US20250249012A1, “COMPOSITIONS AND METHODS FOR TREATING AND/OR PREVENTING A VIRAL INFECTION” (priority 2022, published 2025).
Structures can show the parent of a compound that is named as a salt.

Tested on: SARS-CoV-2 beta variant
Assay: […]; lung PCR and histopathology
Assay type: in vivo, BALB C mice

Compound | antiviral effect upon sole administration (Nafamostat mesylate alone) | antiviral effect of single drug (mouse, in vivo) | reduction of infection (PCR) by single drug (mouse, in vivo) | antiviral effect upon sole administration (Apilimod dimesylate alone)
N=C(N)c1ccc2cc(OC(=O)c3ccc(N=C(N)N)cc3)ccc2c1 [Nafamostat mesylate] | partial antiviral inhibitory effect | no effect | 5-10 fold | –
N-[(E)-(3-methylphenyl)methylidencamino]-6-morpholin-4-yl-2-(2-pyridin-2-ylethoxy)pyrimidin-4-amine [Apilimod dimesylate] | – | no antiviral effect | – | lack of antiviral effect
